Target: T1, sGC α1/β1 heterodimer (Homo sapiens, UniProt Q02108+Q02153)
T1 construct: expressed in transfected cells; host or cells: CHO-K1 (clone #7, CHO-K1/sGC)
T1 sequence (Q02108 1-690): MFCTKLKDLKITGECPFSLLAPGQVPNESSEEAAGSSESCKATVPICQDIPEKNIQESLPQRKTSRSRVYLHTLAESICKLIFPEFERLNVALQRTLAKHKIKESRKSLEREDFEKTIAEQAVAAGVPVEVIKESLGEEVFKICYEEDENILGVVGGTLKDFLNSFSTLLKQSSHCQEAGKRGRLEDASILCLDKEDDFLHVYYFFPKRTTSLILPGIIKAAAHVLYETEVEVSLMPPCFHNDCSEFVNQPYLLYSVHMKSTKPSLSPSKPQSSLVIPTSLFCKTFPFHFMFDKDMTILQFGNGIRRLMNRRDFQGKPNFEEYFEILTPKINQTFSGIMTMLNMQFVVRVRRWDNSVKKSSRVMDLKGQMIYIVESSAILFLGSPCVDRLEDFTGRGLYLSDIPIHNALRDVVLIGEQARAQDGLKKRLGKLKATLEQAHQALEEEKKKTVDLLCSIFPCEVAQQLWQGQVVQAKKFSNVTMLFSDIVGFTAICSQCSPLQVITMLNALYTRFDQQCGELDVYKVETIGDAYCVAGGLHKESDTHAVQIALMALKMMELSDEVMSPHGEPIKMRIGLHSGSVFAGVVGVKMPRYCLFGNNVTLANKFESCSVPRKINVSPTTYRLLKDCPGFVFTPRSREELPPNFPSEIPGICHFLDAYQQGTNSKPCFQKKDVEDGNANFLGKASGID
T1 sequence (Q02153 1-619): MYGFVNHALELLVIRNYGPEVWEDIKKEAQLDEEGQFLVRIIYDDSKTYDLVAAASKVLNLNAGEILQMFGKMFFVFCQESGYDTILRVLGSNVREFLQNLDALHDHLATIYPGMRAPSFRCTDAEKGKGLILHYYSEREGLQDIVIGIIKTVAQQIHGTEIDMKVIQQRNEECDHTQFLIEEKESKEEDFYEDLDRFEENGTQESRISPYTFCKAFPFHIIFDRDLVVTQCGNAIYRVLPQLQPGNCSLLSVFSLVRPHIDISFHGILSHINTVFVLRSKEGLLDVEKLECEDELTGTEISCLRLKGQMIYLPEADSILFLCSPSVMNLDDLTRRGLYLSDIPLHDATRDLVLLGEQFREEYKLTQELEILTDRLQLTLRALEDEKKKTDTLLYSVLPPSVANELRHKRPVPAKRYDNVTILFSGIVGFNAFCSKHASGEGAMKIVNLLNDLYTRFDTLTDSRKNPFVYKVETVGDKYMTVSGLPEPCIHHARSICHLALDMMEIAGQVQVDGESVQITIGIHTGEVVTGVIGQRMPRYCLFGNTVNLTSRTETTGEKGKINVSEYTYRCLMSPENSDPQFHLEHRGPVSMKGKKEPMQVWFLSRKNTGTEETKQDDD
Assay: Cell-Based sGC Functional Assay (CASA Assay), cGMP by HTRF in CHO-K1/sGC cells
Details: for Emax: CHO-K1, percent activation relative to maximum cGMP production of Compound A (= 100%), read-out: % Act.; for EC50: cGMP production, 1 hr at 37° C., 4P fit, presence or absence of 1 μM DETA-NO not given, read-out: IP (nM) (inflection point)
Text: Biological Assay 1: Cell-Based sGC Functional Assay (CASA Assay)
sGC is a heme-containing enzyme that converts GTP to secondary messenger cGMP. Increases in cGMP levels affect several physiological processes including vasorelaxation through multiple downstream pathways. […] Heme-dependent activators (HDAs) preferentially activate sGC containing a ferrous heme group. To determine the effect of sGC activators on enzyme activity, the CASA assay was developed to monitor the generation of cGMP in a cell line that stably expresses the heterodimeric sGC protein.
A CHO-K1 cell line stably expressing the sGC α1/β1 heterodimer was generated using a standard transfection protocol. CHO-K1 cells were transfected with plasmids pIREShyghsGCα1 and pIRESneo-hsGCβ1 simultaneously using FUGENE reagent. Clones that stably express both subunits were selected with hygromycin and neomycin for ˜2 weeks. Clone #7 was chosen for the assay and was designated CHO-K1/sGC. CHO-K1/sGC cells were maintained in F-K12 medium containing 10% heat-inactivated Fetal Bovine Serum (FBS), 100 μg/mL penicillin/streptomycin, 0.5 mg/mL hygromycin and 0.25 mg/mL G418. The cells were then cryopreserved in LN2. On the day of the assay, cells were thawed and resuspended in EBSS Assay Buffer (Sigma, E3024) supplemented with 5 mM MgCl2, 10 mM HEPES (4-(2-hydroxyethyl)piperazine-1-ethanesulfonic acid) and 0.05% BSA (bovine serum albumin) (EAB) and cell density was then adjusted to 4×10^5/mL with EAB. IBMX (3-isobutyl-1-methylxanthin, 0.5 mM) was added to inhibit degradation of cGMP. Compounds were diluted from DMSO stock solutions and added to the assay at a final DMSO concentration of 2.5%. Cells were incubated with compounds in the presence and absence of 1 μM of Diethylenetriamine/nitric oxide adduct (DETA-NO; Sigma, 17018) for 1 hr at 37° C. At the end of the incubation period, the reaction was terminated and the cells were lysed with the detection reagents from Cisbio Kits. The level of intracellular cGMP was determined using an HTRF-based assay kit (CisBio, 62GM2PEC), which detects the displacement of a fluorescence labeled cGMP from its specific antibody. The cGMP produced by test compounds was directly compared to the maximum cGMP production (this value was set to equal 100% activation.) of the published sGC-HDA Compound A:
[drawing 175] (Example 1 in WO 2010/065275, published Jun. 10, 2010). The test compounds' activities were then expressed as a percentage of Compound A, the standard in every experiment. This percent activation was calculated either in the presence or absence of DETA-NO which was then plotted. IP and maximum fold induction was derived using ADA analysis software for 4P fit.
The compounds in the Examples of the instant invention had inflection points (IP) less than or equal to 10 μM and most less than or equal to about 1 μM.

Work on `O=C1Nc2nc(-c3cn4ccnc4c(CCCC(F)(F)F)n3)nc(O)c2C1(c1ccc(Cl)cn1)C1CC1` (stereo not shown) [Example 10A, 5-(5-chloropyridin-2-yl)-5-cyclopropyl-4-hydroxy-2-(8-(4,4,4-trifluorobutyl)imidazo[1,2-a]pyrazin-6-yl)-5H-pyrrolo[2,3-d]pyrimidin-6(7H)-one] yielded an Emax of 126% and an EC50 of 658 nM.

`O=C1Nc2nc(-c3cn4ccnc4c(CCC(F)(F)C(F)(F)F)n3)ncc2C1(c1ccc(F)cc1)C1CC1` (stereo not shown) [Example 11B, 5-cyclopropyl-5-(4-fluorophenyl)-2-(8-(3,3,4,4,4-pentafluorobutyl)imidazo[1,2-a]pyrazin-6-yl)-5H-pyrrolo[2,3-d]pyrimidin-6(7H)-one] gave an Emax of 88% and an EC50 of 66 nM.

`CC1(c2ccc(Cl)c(F)c2)C(=O)Nc2nc(-c3cn4ccnc4c(CCC(F)(F)F)n3)nc(O)c21` (stereo not shown) [Example 13B, 5-(4-chloro-3-fluorophenyl)-4-hydroxy-5-methyl-2-(8-(3,3,3-trifluoropropyl)imidazo[1,2-a]pyrazin-6-yl)-5H-pyrrolo[2,3-d]pyrimidin-6(7H)-one] was tested, and the Emax was 70% and the EC50 was 183 nM.

With `CCCc1nc(-c2nc(O)c3c(n2)NC(=O)C3(C)c2ccc(Cl)cc2)cn2ccnc12` (stereo not shown) [Example 14A, 5-(4-chlorophenyl)-4-hydroxy-5-methyl-2-(8-propylimidazo[1,2-a]pyrazin-6-yl)-5H-pyrrolo[2,3-d]pyrimidin-6(7H)-one] the Emax was 92% and the EC50 was 657 nM.

`CCCc1nc(-c2nc(O)c3c(n2)NC(=O)C3(C)c2ccc(Cl)c(F)c2)cn2ccnc12` (stereo not shown) [Example 15B, 5-(4-chloro-3-fluorophenyl)-4-hydroxy-5-methyl-2-(8-propylimidazo[1,2-a]pyrazin-6-yl)-5H-pyrrolo[2,3-d]pyrimidin-6(7H)-one] was tested, and the Emax was 84% and the EC50 was 702 nM.

For `CC1(c2ccc(Cl)cn2)C(=O)Nc2nc(-c3cn4ccnc4c(Cc4ccc(F)cc4)n3)nc(O)c21` (stereo not shown) [Example 16A, 5-(5-chloropyridin-2-yl)-2-(8-(4-fluorobenzyl)imidazo[1,2-a]pyrazin-6-yl)-4-hydroxy-5-methyl-5H-pyrrolo[2,3-d]pyrimidin-6(7H)-one], the Emax was 111% and the EC50 was 45 nM.

`CCCCc1nc(-c2nc(O)c3c(n2)NC(=O)C3(c2ccc(F)c(F)c2)C2CC2)cn2ccnc12` (stereo not shown) [Example 19A, 2-(8-butylimidazo[1,2-a]pyrazin-6-yl)-5-cyclopropyl-5-(3,4-difluorophenyl)-4-hydroxy-5H-pyrrolo[2,3-d]pyrimidin-6(7H)-one] was tested, and the Emax was 128% and the EC50 was 107 nM.

Work on `O=C1Nc2nc(-c3cn4ccnc4c(CCCC(F)(F)F)n3)nc(O)c2C1(c1ccc(F)c(F)c1)C1CC1` (stereo not shown) [Example 20A, 5-cyclopropyl-5-(3,4-difluorophenyl)-4-hydroxy-2-(8-(4,4,4-trifluorobutyl)imidazo[1,2-a]pyrazin-6-yl)-5H-pyrrolo[2,3-d]pyrimidin-6(7H)-one] yielded an Emax of 139% and an EC50 of 462 nM.

Work on `CCCCc1nc(-c2nc(O)c3c(n2)NC(=O)C3(c2ccc(Cl)c(F)c2)C2CC2)cn2ccnc12` (stereo not shown) [Example 21A, 2-(8-butylimidazo[1,2-a]pyrazin-6-yl)-5-(4-chloro-3-fluorophenyl)-5-cyclopropyl-4-hydroxy-5H-pyrrolo[2,3-d]pyrimidin-6(7H)-one] yielded an Emax of 122% and an EC50 of 115 nM.

`O=C1Nc2nc(-c3cn4ccnc4c(CCCC(F)(F)F)n3)nc(O)c2C1(c1ccc(Cl)c(F)c1)C1CC1` (stereo not shown) [Example 22A, 5-(4-chloro-3-fluorophenyl)-5-cyclopropyl-4-hydroxy-2-(8-(4,4,4-trifluorobutyl)imidazo[1,2-a]pyrazin-6-yl)-5H-pyrrolo[2,3-d]pyrimidin-6(7H)-one] gave an Emax of 126% and an EC50 of 438 nM.

Work on `CCCCc1nc(-c2nc(O)c3c(n2)NC(=O)C3(c2ccc(Cl)cn2)C2CC2)cn2ccnc12` (stereo not shown) [Example 25A, 2-(8-butylimidazo[1,2-a]pyrazin-6-yl)-5-(5-chloropyridin-2-yl)-5-cyclopropyl-4-hydroxy-5H-pyrrolo[2,3-d]pyrimidin-6(7H)-one] yielded an Emax of 153% and an EC50 of 240 nM.

Work on `CCCCc1nc(-c2nc(O)c3c(n2)NC(=O)C3(c2ccc(Cl)cc2F)C2CC2)cn2ccnc12` (stereo not shown) [Example 33A, 2-(8-butylimidazo[1,2-a]pyrazin-6-yl)-5-(4-chloro-2-fluorophenyl)-5-cyclopropyl-4-hydroxy-5H-pyrrolo[2,3-d]pyrimidin-6(7H)-one] yielded an Emax of 111% and an EC50 of 107 nM.

`CC1(c2ccc(Cl)cc2)C(=O)Nc2nc(-c3cn4ccnc4c(CCCC(F)(F)F)n3)ncc21` (stereo not shown) [Example 40A, 5-(4-chlorophenyl)-5-methyl-2-(8-(4,4,4-trifluorobutyl)imidazo[1,2-a]pyrazin-6-yl)-5H-pyrrolo[2,3-d]pyrimidin-6(7H)-one] was tested, and the Emax was 110% and the EC50 was 22 nM.

`CCCCc1nc(-c2ncc3c(n2)NC(=O)C3(c2ccc(F)c(F)c2)C2CC2)cn2ccnc12` (stereo not shown) [Example 43A, 2-(8-butylimidazo[1,2-a]pyrazin-6-yl)-5-cyclopropyl-5-(3,4-difluorophenyl)-5H-pyrrolo[2,3-d]pyrimidin-6(7H)-one] was tested, and the Emax was 112% and the EC50 was 7 nM.

With `CCCCc1nc(-c2ncc3c(n2)NC(=O)C3(c2ccc(Cl)cc2F)C2CC2)cn2ccnc12` (stereo not shown) [Example 45A, 2-(8-butylimidazo[1,2-a]pyrazin-6-yl)-5-(4-chloro-2-fluorophenyl)-5-cyclopropyl-5H-pyrrolo[2,3-d]pyrimidin-6(7H)-one] the Emax was 93% and the EC50 was 5 nM.

Work on `O=C1Nc2nc(-c3cn4ccnc4c(CCCC(F)(F)F)n3)ncc2C1(c1ccc(Cl)cc1F)C1CC1` (stereo not shown) [Example 46A, 5-(4-chloro-2-fluorophenyl)-5-cyclopropyl-2-(8-(4,4,4-trifluorobutyl)imidazo[1,2-a]pyrazin-6-yl)-5H-pyrrolo[2,3-d]pyrimidin-6(7H)-one] yielded an Emax of 135% and an EC50 of 10 nM.

`CCCCc1nc(-c2ncc3c(n2)NC(=O)C3(c2ccc(Cl)c(F)c2)C2CC2)cn2ccnc12` (stereo not shown) [Example 47A, 2-(8-butylimidazo[1,2-a]pyrazin-6-yl)-5-(4-chloro-3-fluorophenyl)-5-cyclopropyl-5H-pyrrolo[2,3-d]pyrimidin-6(7H)-one] gave an Emax of 123% and an EC50 of 11 nM.

— patent US10213429B2, “Imidazo-pyrazinyl derivatives useful as soluble guanylate cyclase activators” (Merck Sharp & Dohme Corp., priority 2015, dated 2019)
